Source: patent US4806538A, “Piperazine compound as PAF-antagonist” (Fujisawa Pharmaceutical Co., Ltd., priority 1984, dated 1989)
Values after ≈ are worked out from the molar mass of the structure shown.

What was measured:
[1] = tested on: Platelet aggregation induced with PAF; experiment: Test 1: inhibition of PAF-induced platelet aggregation in platelet rich plasma; type: cell-based, Japanese white rabbit; details: Oryctolagus cuniculus, rabbit PRP, 5×10^5 cells/mm^3, final concentration of PAF usually 20 nM
Method: (Inhibition of platelet aggregation)
Blood was collected through the polyethylene catheter introduced into the carotid artery of male Japanese white rabbit (2.5 to 3 kg body weight). The blood was anticoagulated with 1 volume of 3.8% sodium citrate to 9 volume of blood. Platelet rich plasma (PRP) was prepared by centrifugation of the blood at 150 g for 10 minutes at room temperature. The PRP was diluted with platelet poor plasma obtained by further centrifugation of the blood at 1,000 g for 20 minutes. The platelet number was 5×10^5 cells/mm^3. Platelet aggregation induced with PAF was measured by the nephelometric technique of Born and Cross [cf. Journal of Physiology 168, 178-188 (1963)] using HKK Hema tracer (trade name, made by Niko Bioscience Inc.).
Activities of inhibitors were expressed as IC50 value, i.e. concentrations required to inhibit the platelet aggregation response by 50%. The final concentration of PAF was usually 20 nM.

[2] = tested on: vascular permeability increase induced by intradermally injected PAF; experiment: Test 4: inhibition of vascular permeability increase induced by intradermally injected PAF in mice (test compound orally); type: in vivo, ddY mice; details: 100 mg/kg orally, 30 minutes before Evans blue; PAF 50 ng intradermally; 30 minutes after PAF
Method: (§1) (Inhibition of vascular permeability increase induced by intradermally injected PAF in mice)
Five-week old male ddY mice were used. The test compound suspended in 0.5 methylcellulose suspension was administered orally 30 minutes before the Evans blue injection (0.125% solution in saline, 10 ml/kg, i.v.).
PAF (50 ng, 50 μl per site) was injected intradermally to the depilated back of the mice 5 minutes after the Evans blue injection.
(§2) The inhibitory activity of the test compound was monitored 30 minutes after the PAF injection by assessment of blueing reaction with Evans blue dye in mice skin.

[3] = tested on: synthetic PAF induced hypotension; experiment: Test 2: inhibition of hypotensive effect induced by intravenously injected PAF in rats; type: in vivo, Sprague-Dowley rats; details: 3 minutes before PAF (1 μg/kg i.v.), anesthetized rats
Method: (Inhibition of hypotensive effect induced by intraveneously injected PAF in rats)
Seven-week old Sprague-Dowley rats were anesthetized with urethane (1 g/kg, i. p.). Catheters were introduced into the femoral artery and vein for the measurement of arterial pressure and the administration of the test compound, respectively. Blood pressure was recorded from femoral artery using a transducer coupled to the Biophysiograph 180 System (San-Ei Instrument Co., Ltd.). Inhibitory activity of the test compound was shown in the following Table as the inhibition percentage of the synthetic PAF induced hypotension. PAF was administered intravenously at a dose of 1 μg/kg. The test compound was administered intravenously 3 minutes before PAF injection.

[4] = tested on: vascular permeability increase induced by intradermally injected PAF; experiment: Test 3: inhibition of vascular permeability increase induced by intradermally injected PAF in mice (test compound i.p.); type: in vivo, ddY mice; details: 10 mg/kg i.p., 15 minutes before Evans blue; PAF 50 ng intradermally; 30 minutes after PAF
Method: as §1
Six-week old male ddY mice were used. The test compound was administered intraperitoneally 15 minutes before the Evans blue injection (0.125% solution in saline, 0.2 ml/mouse, i.v.).
PAF (50 ng, 50 μl per size) was injected intradermally to the depilated back of the mice 5 minutes after the Evans blue injection.
as §2

| Structure (SMILES) | IC50 [1] [µg/mL] | also measured |
| --- | --- | --- |
| CSCCCC1NC(=O)[C@@H](Cc2cn(C)c3ccccc23)NC1=O (single isomer, unassigned) [Test compound 5] | 0.55 (≈ 1.59 µM) | – |
| CSCC[C@@H]1C(=O)N(C)[C@H]([C@H](C)c2cccc3ccccc23)C(=O)N1C [Test compound 16] | 0.59 (≈ 1.59 µM) | – |
| CSCC[C@H]1NC(=O)[C@@H]([C@@H](C)c2cccc3ccccc23)NC1=O [Test compound 12] | 0.65 (≈ 1.9 µM) | – |
| C[C@H](c1cn(C)c2ccccc12)[C@H]1NC(=O)[C@@H](Cc2ccccn2)NC1=O [Example 18, (3R,6R)-3-[(R)-1-(1-methylindol-3-yl)ethyl]-6-(2-pyridylmethyl)piperazine-2,5-dione] | 0.16 (≈ 0.441 µM) | Inhibition of vascular permeability increase (%) [2]: 56.7% |
| CSCC[C@H]1NC(=O)[C@@H](Cc2cn(C)c3ccccc23)NC1=O [Example 1, (3R,6R)-3-(1-methylindol-3-ylmethyl)-6-(2-methylthioethyl)piperazine-2,5-dione] | 0.71 (≈ 2.14 µM) | – |
| CSCC[C@H]1NC(=O)[C@@H]([C@H](C)c2cccc3ccccc23)NC1=O [Test compound 9] | 0.061 (≈ 0.178 µM) | Inhibition maximum (%) of hypotensive effect ([3]; 3 mg/kg i.v.): 51%; Inhibition of vascular permeability increase (%) [4]: 40% |
| CSCC[C@@H]1C(=O)N(C)[C@H](Cc2cn(C)c3ccccc23)C(=O)N1C [Example 4, (3R,6R)-1,4-dimethyl-3-(1-methylindol-3-ylmethyl)-6-(2-methylthioethyl)piperazine-2,5-dione] | 0.84 (≈ 2.34 µM) | – |
| CSCC[C@H]1NC(=O)[C@@H](Cc2cccc3ccccc23)NC1=O [Test compound 10] | 0.48 (≈ 1.46 µM) | – |
| CSCC[C@H]1NC(=O)[C@@H](Cc2c3ccccc3cc3ccccc23)NC1=O [Test compound 11] | 0.58 (≈ 1.53 µM) | – |
| CSCC[C@H]1NC(=O)[C@@H](Cc2c(-c3ccccc3)n(C)c3ccccc23)NC1=O [Test compound 13] | 0.72 (≈ 1.77 µM) | – |
| Cn1cc(C[C@H]2NC(=O)[C@@H](Cc3cn(C)c4ccccc34)NC2=O)c2ccccc21 [Test compound 7] | 1.2 (≈ 3 µM) | – |
| CCC[C@H]1NC(=O)[C@@H](Cc2cn(C)c3ccccc23)NC1=O [Test compound 14] | 0.93 (≈ 3.11 µM) | – |
| CC(C)C[C@H]1NC(=O)[C@@H](Cc2cn(C)c3ccccc23)NC1=O [Test compound 2] | 1.04 (≈ 3.32 µM) | Inhibition maximum (%) of hypotensive effect ([3]; 10 mg/kg i.v.): 75%; Inhibition of vascular permeability increase (%) [4]: 30% |
| CCCC[C@H]1NC(=O)[C@@H](Cc2cn(C)c3ccccc23)NC1=O [Test compound 8] | 0.58 (≈ 1.85 µM) | – |
